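Test compounds were applied to cells in 96-well plates for 48 hours at 5 doses. Abbreviation: GI50, concentration required for 50% inhibition of growth. TGI: concentration producing complete growth inhibition.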
Experiments:
Experiment in all cases: DTP human tumour cell line panel, 48 h
SW-620 colon = system: SW-620 colon
MDA-MB-231 breast = system: MDA-MB-231 breast
K-562 leukemia = system: K-562 leukemia
COLO 205 colon = system: COLO 205 colon
UO-31 renal = system: UO-31 renal
HT29 colon = system: HT29 colon
A549 NSCLC = system: A549 NSCLC
OVCAR-3 ovarian = system: OVCAR-3 ovarian
SN12C renal = system: SN12C renal
T-47D breast = system: T-47D breast
TK-10 renal = system: TK-10 renal

SMILES | TGI (SW-620 colon) [µM] | TGI (MDA-MB-231 breast) [µM] | GI50 (K-562 leukemia) [µM] | TGI (K-562 leukemia) [µM] | TGI (COLO 205 colon) [µM] | TGI (UO-31 renal) [µM] | GI50 (HT29 colon) [µM] | TGI (HT29 colon) [µM] | GI50 (A549 NSCLC) [µM] | TGI (A549 NSCLC) [µM] | TGI (OVCAR-3 ovarian) [µM] | TGI (SN12C renal) [µM] | TGI (T-47D breast) [µM] | TGI (TK-10 renal) [µM] | GI50 (OVCAR-3 ovarian) [µM]
NS(=O)(=O)c1ccc(/C=C/c2ccc(O)c(O)c2)cc1 | > 100 | 64.6 | 35.3 | > 100 | 53.8 | 35 | 35.4 | > 100 | 22.3 | > 100 | > 100 | 60.9 | 53.1 | > 100 | –
O=C(N/N=C(\c1ccccc1)c1ccccn1)NC1CCCCC1 | > 100 | > 100 | – | > 100 | > 100 | > 100 | – | > 100 | – | > 100 | > 100 | > 100 | > 100 | > 100 | –
CN1CCc2c([nH]c3ccccc23)C1 | > 100 | > 100 | – | > 100 | > 100 | > 100 | – | > 100 | – | > 100 | > 100 | > 100 | > 100 | > 100 | –
Cc1ccc2c(c1)C(=S)N1CSCC1c1nncn1-2 (centres undefined) | > 100 | > 100 | – | > 100 | > 100 | > 100 | – | > 100 | – | > 100 | > 100 | > 100 | > 100 | > 100 | –
C=CCCON(C(=O)OC(C)(C)C)C(C)(C)C | > 100 | > 100 | – | > 100 | > 100 | > 100 | – | > 100 | – | > 100 | > 100 | > 100 | > 100 | > 100 | –
COC(=O)C1=C(OC(=O)/C(=C/c2ccc(Cl)cc2)c2ccc(Cl)cc2)C(C(=O)OC)[C@@]2(O)[C@@H](C(=O)OC)[C@H](C)C[C@@H]1[C@@H]2C(=O)OC (some centres undefined) | > 100 | > 100 | – | > 100 | > 100 | > 100 | – | > 100 | – | > 87.7 | > 100 | > 100 | > 100 | > 100 | –
CCOC(=O)CCC(NC(=O)Cc1ccc(Nc2nc3cc(F)c(F)cc3nc2C(=O)OCC)cc1)C(=O)OCC (centres undefined) | > 100 | > 100 | – | > 100 | > 100 | > 100 | – | > 100 | – | > 100 | > 100 | > 100 | 78.8 | > 100 | –
BrC1=C(Br)C2(SCCS2)[C@H]2C[C@@H]1c1ccccc12 | > 100 | > 100 | – | > 100 | > 100 | > 62.3 | – | > 100 | – | > 100 | > 100 | > 100 | > 100 | > 100 | –
COC(=O)C1=C(C(=O)OC)N(c2ccc(OC)cc2[N+](=O)[O-])C(c2ccc(C)cc2)=CC1c1ccc(OC)cc1OC (centres undefined) | 19.2 | > 74 | – | > 54.4 | 20.8 | > 31.6 | – | > 100 | – | 65.3 | > 95 | 26.5 | > 93.3 | > 100 | –
O=C(Nc1ccccc1)c1cc(S(=O)(=O)NC2=NC(c3ccccc3)c3cc(Cl)ccc3N2)c(SSc2cc(Cl)c(C(=O)Nc3ccccc3)cc2S(=O)(=O)NC2=NC(c3ccccc3)c3cc(Cl)ccc3N2)cc1Cl (centres undefined) | > 100 | > 83.6 | – | > 100 | > 100 | > 100 | – | > 100 | – | > 100 | > 100 | > 100 | > 100 | > 100 | –
Cn1c(=O)c2c(ncn2CCNC(CO)C(O)c2ccc([N+](=O)[O-])cc2)n(C)c1=O (centres undefined) | – | > 100 | – | > 100 | > 100 | > 100 | – | > 100 | – | > 100 | > 100 | > 100 | > 100 | > 100 | –
O=C1C2SC34c5c2c2ccccc2n5CCC3CCCN14 (centres undefined) | > 100 | > 100 | – | > 100 | > 100 | > 100 | – | > 100 | – | > 100 | > 100 | > 100 | > 100 | 87 | –
CO/N=C(\C)c1ccc(Nc2nc3ccccc3c3occc23)cc1 | – | 25.9 | – | 50.7 | 28.1 | 35.9 | – | 14.5 | – | 39 | 96.1 | 28.9 | 28.9 | 25.4 | –
O=C1c2ccccc2C(=O)c2c(NCC(O)CO)ccc(NCC(O)CO)c21 (centres undefined) | > 100 | > 100 | – | > 100 | > 100 | 71.2 | – | > 100 | – | > 100 | > 100 | > 100 | > 100 | > 100 | –
COC[C@@H](N=CC(C)(C)C)C(C)C | > 100 | > 100 | – | > 100 | > 100 | > 100 | – | > 100 | – | > 100 | > 100 | > 100 | > 100 | > 100 | –
CN1C(=O)c2ccccc2OC12C=Cc1c(ccc3ccccc13)O2 (centres undefined) | > 72.6 | 44.6 | – | > 31.5 | 10.8 | 35.8 | – | 10.3 | – | 40.1 | 19.1 | > 57.1 | > 25.7 | > 61 | –
COC(=O)c1ccc(/C=C/c2cc(O)ccc2O)cc1 | 18.6 | 24 | – | 4.38 | 22.8 | 3.67 | – | > 100 | – | > 100 | 6.86 | 18.8 | 5.32 | 45.3 | –
COc1cccc(C(=O)Oc2ccc(OS(=O)(=O)c3ccc(C)cc3)cc2)c1C#N | > 100 | > 100 | – | > 100 | > 100 | > 100 | – | > 100 | – | > 100 | > 100 | > 100 | 71.7 | > 100 | –
O=c1[nH]nnc2c1sc1ncccc12 | > 100 | > 100 | – | > 100 | > 100 | > 100 | – | > 100 | – | > 100 | > 100 | > 100 | > 100 | > 100 | –
Cc1ccc(-n2cnc(C(=N)C#N)c2N)cc1 | > 100 | > 100 | – | > 100 | > 100 | > 100 | – | > 100 | – | > 100 | > 100 | > 100 | > 100 | > 100 | –

SMILES | TGI (SW-620 colon) [µM] | TGI (MDA-MB-231 breast) [µM] | GI50 (K-562 leukemia) [µM] | TGI (K-562 leukemia) [µM] | TGI (COLO 205 colon) [µM] | TGI (UO-31 renal) [µM] | GI50 (HT29 colon) [µM] | TGI (HT29 colon) [µM] | GI50 (A549 NSCLC) [µM] | TGI (A549 NSCLC) [µM] | TGI (OVCAR-3 ovarian) [µM] | TGI (SN12C renal) [µM] | TGI (T-47D breast) [µM] | TGI (TK-10 renal) [µM] | GI50 (OVCAR-3 ovarian) [µM]
C=CCn1c(N)c(C#N)c(C#N)c1-c1ccccc1 | > 100 | > 100 | – | > 100 | > 100 | > 100 | – | > 100 | – | > 100 | > 100 | > 100 | > 100 | > 100 | –
COc1cccc(C2c3cc4c(cc3OC(N3CCCCC3)C2C)OCO4)c1O (centres undefined) | > 87.8 | > 56.7 | – | 12.7 | 25.5 | 81.1 | – | 13.3 | – | > 66.5 | 9.14 | 19.4 | 80 | 62.8 | –
O=C1C=CC(=O)c2c1ccc1c3ccccc3n(CCCCCn3c4ccccc4c4ccc5c(c43)C(=O)C=CC5=O)c21 | 26.8 | 46.8 | – | 4.89 | 34.9 | 16.4 | – | 85.5 | – | > 100 | 34.4 | 41.5 | 24.5 | 26.8 | –
Cc1ccc(C2SCC(=O)N2c2ccc(-n3c(-c4ccccc4)nc4ccccc4c3=O)cc2)cc1 (centres undefined) | > 100 | 39.6 | – | > 100 | > 100 | 59.1 | – | 61.1 | – | > 100 | 51.9 | > 100 | 67.3 | > 100 | –
Cc1[nH]c(=O)nc2nc3ccc(Cl)cc3c(NCCNCCO)c12 | 19.6 | 24 | – | > 100 | 21.6 | 20.7 | – | 21.9 | – | 33 | 25.2 | 19.8 | 23.1 | 33.1 | –
COc1cc(OC)cc(Oc2nc3ccccc3nc2C(F)(F)F)c1 | > 100 | 94.9 | – | > 100 | > 100 | > 100 | – | > 100 | – | > 100 | > 100 | > 100 | > 100 | > 100 | –
Cc1c(C)c2c(c(N)c1C#N)C(=O)N(NC(=O)c1ccccc1)C2=O | > 100 | > 100 | – | > 100 | > 100 | > 100 | – | – | – | > 100 | > 100 | > 100 | > 100 | > 100 | –
CC(=O)c1ccccc1NP(=O)(c1ccccc1)c1ccccc1 | > 100 | > 100 | – | > 100 | 34.4 | > 100 | – | > 100 | – | > 100 | > 100 | > 100 | > 100 | > 100 | –
Cc1ccc(S(=O)(=O)c2[nH]cc(/C(=C\C3CCCCC3)[N+](=O)[O-])c2C2CCCCC2)cc1 | 3.67 | 0.515 | – | 0.923 | 0.602 | 1.32 | – | > 100 | – | 6.59 | 0.981 | 0.49 | 1.29 | 2.08 | –
O=c1[nH]cnc2c1cnn2Cc1cn(CCCCO)nn1 | > 100 | > 100 | – | > 100 | > 100 | > 100 | – | > 100 | – | > 100 | > 100 | > 100 | > 100 | > 100 | –
CC(=O)Nc1ccc(N=Nc2c(O)c(S(=O)(=O)O)cc3cc(S(=O)(=O)O)ccc23)cc1 | > 100 | > 100 | – | > 100 | > 100 | > 100 | – | > 100 | – | > 100 | > 100 | > 100 | > 100 | > 100 | –
O=C1Nc2cccc(Cl)c2/C1=C\c1c(Cl)nc2n1CCS2 | > 100 | > 100 | – | > 100 | > 100 | > 100 | – | > 100 | – | > 100 | > 100 | > 100 | > 100 | > 100 | –
Cc1n(Cc2ccccc2)c2c([n+]1C)C(=O)c1ccccc1C2=O | 0.763 | 0.299 | – | 1.66 | 0.0794 | 20.9 | – | 0.353 | – | 0.197 | 0.0771 | 0.112 | 1.33 | 1.67 | –
Nc1ccc2c(c1)C(=O)N1CCC[C@H]1C(=O)N2 | > 100 | > 100 | – | > 100 | > 100 | > 100 | – | > 100 | – | > 100 | > 100 | > 100 | > 100 | > 100 | –
Cc1ccnc2[nH]c(-c3ccc4ccccc4c3)cc(=O)c12 | 13.9 | 8.58 | – | 6.52 | 13.3 | 16 | – | 12.4 | – | 16.1 | 4.51 | 18.7 | 34.6 | 13.4 | 1.29
CCCNC(=O)NNC(=O)c1c[nH]c2nc(C)ccc2c1=O | > 100 | > 100 | – | > 100 | > 100 | > 100 | – | > 100 | – | > 100 | > 100 | > 100 | > 100 | > 100 | –
Brc1ccc2[nH]cc(-c3csc(-c4c[nH]c5ccccc45)n3)c2c1 | 8.23 | 6.37 | – | > 20.8 | 7.72 | 11.3 | – | 3.29 | – | 20.2 | 11.8 | 14.2 | 26.9 | 12 | –
Nc1c(C(=O)O)nnc2ccc(Cl)cc12 | > 100 | > 100 | – | > 100 | > 100 | > 100 | – | > 100 | – | > 100 | > 100 | > 100 | > 100 | > 100 | –
CC1=NN(c2nc(N)nc(/C(C#N)=C\c3ccc([N+](=O)[O-])s3)n2)C(C)(C)C1 | – | 0.465 | – | 0.355 | 1.61 | 0.278 | – | 0.722 | – | 16.5 | 0.404 | 1.51 | 0.264 | 1.26 | –
